Source: article PMC4645114, “Discovery of Novel ROCK1 Inhibitors via Integrated Virtual Screening Strategy and Bioassays” (Scientific Reports, 2015)
Several values for one entry are separate records, joined by “and”; a condition that tells them apart may be missing. Equal entries are not always repeated. Each block holds one molecule with its values, some of them ahead of it.

Experiments:
ROCK1 = target: T1, ROCK1 (Homo sapiens, UniProt Q13464); experiment: Z′-LYTE kinase assay, ROCK1 enzyme activity; type: biochemical
T1 construct: 15 μl kinase reaction volume with 5 ng ROCK1 enzyme
T1 sequence (Q13464 whole entry): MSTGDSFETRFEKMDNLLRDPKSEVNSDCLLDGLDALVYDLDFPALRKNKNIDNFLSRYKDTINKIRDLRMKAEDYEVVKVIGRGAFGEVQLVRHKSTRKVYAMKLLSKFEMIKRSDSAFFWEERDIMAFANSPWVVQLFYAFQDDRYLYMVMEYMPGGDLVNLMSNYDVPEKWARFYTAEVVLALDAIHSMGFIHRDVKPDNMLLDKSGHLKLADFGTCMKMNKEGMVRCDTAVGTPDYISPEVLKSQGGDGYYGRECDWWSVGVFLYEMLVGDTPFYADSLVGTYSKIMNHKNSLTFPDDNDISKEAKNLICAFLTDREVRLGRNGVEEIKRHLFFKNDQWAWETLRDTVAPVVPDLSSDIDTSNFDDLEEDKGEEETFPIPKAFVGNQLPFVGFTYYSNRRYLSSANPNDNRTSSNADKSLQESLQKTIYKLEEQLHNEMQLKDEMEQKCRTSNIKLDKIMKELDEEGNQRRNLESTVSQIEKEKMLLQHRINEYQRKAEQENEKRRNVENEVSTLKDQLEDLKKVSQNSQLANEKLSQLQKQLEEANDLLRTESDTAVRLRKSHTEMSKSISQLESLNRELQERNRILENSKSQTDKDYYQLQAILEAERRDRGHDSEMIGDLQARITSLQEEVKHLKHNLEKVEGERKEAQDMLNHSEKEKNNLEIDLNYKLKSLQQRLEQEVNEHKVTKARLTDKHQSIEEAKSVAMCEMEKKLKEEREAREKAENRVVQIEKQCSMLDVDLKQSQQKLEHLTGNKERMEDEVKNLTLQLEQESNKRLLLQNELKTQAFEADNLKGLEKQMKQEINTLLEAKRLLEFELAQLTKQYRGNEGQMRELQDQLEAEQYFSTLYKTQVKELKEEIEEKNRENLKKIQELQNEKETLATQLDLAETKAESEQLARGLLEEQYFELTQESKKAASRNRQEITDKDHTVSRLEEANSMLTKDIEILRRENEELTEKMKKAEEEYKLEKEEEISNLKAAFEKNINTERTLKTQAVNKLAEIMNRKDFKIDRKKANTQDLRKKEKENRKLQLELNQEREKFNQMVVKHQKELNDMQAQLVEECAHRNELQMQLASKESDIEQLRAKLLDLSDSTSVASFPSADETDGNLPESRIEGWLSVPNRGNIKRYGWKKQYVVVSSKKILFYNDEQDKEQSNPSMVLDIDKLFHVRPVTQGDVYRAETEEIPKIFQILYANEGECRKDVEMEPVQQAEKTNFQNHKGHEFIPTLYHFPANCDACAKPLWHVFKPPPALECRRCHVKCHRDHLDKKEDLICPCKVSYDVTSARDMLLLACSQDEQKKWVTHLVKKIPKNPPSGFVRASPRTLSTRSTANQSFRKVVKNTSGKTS
Experimental: Kinase inhibition was measured by using the Z′-LYTE™ Kinase Assay Kit with Ser/Thr 7 peptide substrate (Invitrogen, cat. PV3180). Compounds were tested on three individual times with eight point dilutions performed in duplicate to determine the average IC50 values. The assay conditions were optimized to 15 μl kinase reaction volume with 5 ng ROCK1 enzyme in 50 mM HEPES (pH = 7.5), 10 mM MgCl2, 0.01% Brij-35 and 1 mM EGTA. Initially, the reaction was incubated for 1 hour at room temperature in the presence of 1.5 μM peptide substrate and 12.5 μM ATP for ROCK1. Then, 5 μL development reagent A was added and the assay plate was incubated for another 1 hour. Finally, […] stop reagent was added and the assay plate was shaken for 1 hour. The coumarin (ex. 400 nm, em. 445 nm) and fluorescein (ex. 400 nm, em. 520 nm) emission signals were measured on a fluorescence plate reader (Thermo Scientific Varioskan Flash).

zebrafish embryos = experiment: Atorvastatin-induced cerebral hemorrhage in zebrafish; type: in vivo; design: hemorrhage changes compared with the disease model group: dose or concentration left out as unconfirmed; settings: for Cerebral hemorrhage rate (%): then atorvastatin 24 hours; for hemorrhage changes compared with the disease model group: atorvastatin 24 hours
Experimental: Tg (fli1a:EGFP)y1; Tg (gata1a:dsRed)sd2 homozygous double transgenic zebrafish was used and maintained as described in our previous study. […] The animal experiments were carried out in “accordance” with the approved guidelines of the Animal Research Ethics Committee, University of Macau and approved by the Animal Research Ethics Committee, University of Macau.
Tg (fli1a:EGFP)y1; Tg (gata1a:dsRed)sd2 homozygous double transgenic zebrafish embryos at 22 hours post-fertilization (hpf) were pretreated with the targeted compounds (TS 15 and TS 40) for 2 hours. During this period, the positive control group was treated with […] Y27632 while the vehicle control group was given with 0.2% DMSO (solvent). Then, all the pretreated embryos washed with PBS for 3 times and challenged with 1 mM atorvastatin for 24 hours according to the reported protocol with small modifications. After that, the viability and cerebral hemorrhage changes were observed using a fluorescence microscope (Olympus IX81 Motorized Inverted Microscope, Japan) equipped with a digital camera (DP controller, Soft Imaging System, Olympus, Germany). The results were analyzed with Axiovision 4.2 (Soft Imaging System, Olympus, Germany) and the public-domain Image J software (Rasband WS, Image J; US National Institutes of Health, Bethesda, MD). The cerebral hemorrhage rate of each group was calculated by the number of zebrafish with cerebral hemorrhage to the total number of each group.

[1] = system: phosphorylation of cofilin (ROCK pathway) in HUVEC; experiment: Western blotting of cofilin phosphorylation in HUVEC; type: cell-based, Human; settings: compared with the control group
Experimental: Human umbilical vein endothelial cells (HUVEC, ATCC, Manassas, USA) were cultured and maintained in the F-12 K medium with 2 mM L-glutamine, 1.5 g/L sodium bicarbonate, 100 μg/mL heparin, 30 μg/mL endothelial cell growth supplement and 10% fetal bovine serum (FBS) at 37 °C in a humidified atmosphere of 5% CO2. Cells were exposed to culture medium with 10% FBS for at least 1 day before experiments. Only 3–6 passages of cells were used in this study.
HUVEC was pretreated with different targeted compounds (TS-15 and TS-40) for 1 hour. Y27632 and 0.2% DMSO were used as the positive control and vehicle control, respectively. After drug treatment, cells were washed with pre-cold PBS and lysed on ice with RIPA lysis buffer for 30 min, followed by centrifugation at 12,500 g for 20 min at 4 °C. The supernatant was collected and protein concentration was determined using the BCA protein assay kit (Thermo Scientific Pierce). Aliquots of protein samples were boiled for 5 min at 95 °C and electrophoresed on 10% SDS-PAGE and then transferred to a polyvinylidene difluoride membrane (Bio-Rad, Hercules, CA, USA). Subsequently, the membrane was blocked with 5% (w/v) nonfat milk in TBS-T buffer for 1 hour at room temperature. The blots were incubated overnight at 4 °C with primary antibodies. After being washed with TBS-T for 20 min at room temperature, the membranes were further incubated with horseradish peroxidase-conjugated secondary antibodies for 2 hours at room temperature. Finally, protein bands were visualized using ECL Plus Western blotting detection reagents (GE Healthcare, Piscataway, NJ, USA). The membranes were then scanned on a Bio-Rad ChemiDoc imaging system and the intensity of the protein bands was analyzed using the Bio-Rad Image Lab software.

[2] = ROCK1, 12.5 μM ATP, 8-point dilutions, three individual times

IC50 (ROCK1; [2]): 67.2 ± 0.57 µM
SMILES: O=c1[nH]c2ccc(-c3cc(NC4CCCC4)nc4[nH]ccc34)cc2[nH]c1=O [TS-11]

SMILES: OC(CN1CCOCC1)c1ccc(-c2ccnc3[nH]ccc23)cc1 (stereo not shown) [TS-15]
IC50 (ROCK1; [2]): < 1 µM and 0.25 µM
IC50 (ROCK1; ROCK1, value given in text): < 0.3 µM
Cerebral hemorrhage rate (%) (zebrafish embryos; 6 μM pretreatment): 79.3 ± 5.9%
Cerebral hemorrhage rate (%) (zebrafish embryos; 20 μM pretreatment): 73.5 ± 13.0 %
Cerebral hemorrhage rate (%) (zebrafish embryos; 60 μM pretreatment): <60 ^b,* %
hemorrhage changes compared with the disease model group (zebrafish embryos): obviously abated
inhibitory rate against cerebral hemorrhage (zebrafish embryos; dose of 6 μM): 79.3%
inhibitory rate against cerebral hemorrhage (zebrafish embryos; dose of 20 μM): 73.5%
toxicity to zebrafish (zebrafish embryos; dose of 20 μM): relatively safe
inhibitory rate against cerebral hemorrhage (zebrafish embryos; dose of 60 μM): < 60%
toxicity to zebrafish (zebrafish embryos; dose of 60 μM): toxic
phosphorylation level of cofilin (p-cofilin band, ratio to T-cofilin) [1]: significant inhibitory effects

IC50 (ROCK1; [2]): 9.94 ± 4.33 µM
SMILES: COCCNc1cc(-c2ccc(C3(O)CCNCC3)cc2)c2cc[nH]c2n1 [TS-16]

IC50 (ROCK1; [2]): 26.5 ± 1.13 µM
SMILES: CNc1cc(-c2ccccc2OCCn2ccnc2)c2cc[nH]c2n1 [TS-27]

IC50 (ROCK1; [2]): 6.71 ± 1.48 µM
SMILES: Nc1cc(-c2ccc(C3(O)CCNCC3)cc2)c2cc[nH]c2n1 [TS-28]

IC50 (ROCK1; [2]): < 1 µM and 0.15 µM
IC50 (ROCK1; ROCK1, value given in text): < 0.3 µM
SMILES: NS(=O)(=O)c1ccc(-c2ccnc3[nH]ccc23)c(F)c1 [TS-40]
Cerebral hemorrhage rate (%) (zebrafish embryos; 6 μM pretreatment): 90.6 ± 7.4%
Cerebral hemorrhage rate (%) (zebrafish embryos; 20 μM pretreatment): 78.8 ± 7.1 %
Cerebral hemorrhage rate (%) (zebrafish embryos; 60 μM pretreatment): 66.2 ± 7.2 %
hemorrhage changes compared with the disease model group (zebrafish embryos): obviously abated
inhibitory rate against cerebral hemorrhage (zebrafish embryos; dose of 20 μM): 78.8%
inhibitory rate against cerebral hemorrhage (zebrafish embryos; dose of 60 μM): 66.2%
phosphorylation level of cofilin (p-cofilin band, ratio to T-cofilin) [1]: significant inhibitory effects

IC50 (ROCK1; [2]): 1.55 ± 0.57 µM
SMILES: OCCCNCc1cccc(-c2ccnc3[nH]ccc23)c1 [TS-f5]

IC50 (ROCK1; [2]): 12.4 ± 0.85 µM
SMILES: CN(Cc1cccc(C(=O)Nc2ccc3[nH]ncc3c2)c1)Cc1cc[nH]n1 [TS-f6]

IC50 (ROCK1; [2]): 28.3 ± 0.99 µM
SMILES: NCC1CCN(Cc2ccc(-c3nc(-c4ccncc4)cc(=O)[nH]3)cc2)CC1 [TS-f7]

IC50 (ROCK1; [2]): 31.4 ± 1.63 µM
SMILES: O=C(NCCc1c[nH]cn1)c1coc(COc2cccc3cnccc23)n1 [TS-f10]

IC50 (ROCK1; [2]): 3.2 ± 1.06 µM
SMILES: O=S(=O)(c1ccccc1)c1ccc(-c2ccnc3[nH]ccc23)cc1 [TS-f13]

IC50 (ROCK1; [2]): < 1 µM and 0.48 µM
SMILES: Cn1ncc2cc(-c3ccnc4[nH]ccc34)ccc21 [TS-f22]

IC50 (ROCK1; [2]): 4.42 ± 1.14 µM
SMILES: COCc1nc2cc(-c3ccnc4[nH]ccc34)ccc2o1 [TS-f25]

IC50 (ROCK1; [2]): 3.48 ± 1.65 µM
SMILES: Cc1nc(-c2cccc(-c3ccnc4[nH]ccc34)c2)no1 [TS-f26]

IC50 (ROCK1; [2]): 23.05 ± 0.07 µM
SMILES: CN(Cc1cc(F)ccc1O)Cc1cccc2cnccc12 [TS-f28]

IC50 (ROCK1; [2]): 2.21 ± 0.21 µM
SMILES: CCCCNC(=O)c1ccc(-c2ccnc3[nH]ccc23)o1 [TS-f32]

IC50 (ROCK1; [2]): 1.82 ± 0.76 µM
SMILES: c1cc(OCCn2ccnc2)cc(-c2ccnc3[nH]ccc23)c1 [TS-f37]

SMILES: C[C@@H](N)[C@H]1CC[C@H](C(=O)Nc2ccncc2)CC1 [Y27632, reference compound]
Cerebral hemorrhage rate (%) (zebrafish embryos; 10 μM pretreatment): 74.4 ± 8.7 %
hemorrhage changes compared with the disease model group (zebrafish embryos): obviously abated
inhibitory rate against cerebral hemorrhage (zebrafish embryos; dose of 10 μM): 74.4%
phosphorylation level of cofilin (p-cofilin band, ratio to T-cofilin) [1]: reduced significantly
